Measurements as given in PMC5622171 (Nature Communications, 2017).
Entries after “also recorded” stand apart in the source; their conditions may differ.

Assays:
[1] = molecular target: T1, hPXR (Homo sapiens, UniProt O75469); test: hPXR transactivation assay, HepG2 stable cell line, agonistic mode
T1 sequence (O75469 1-434): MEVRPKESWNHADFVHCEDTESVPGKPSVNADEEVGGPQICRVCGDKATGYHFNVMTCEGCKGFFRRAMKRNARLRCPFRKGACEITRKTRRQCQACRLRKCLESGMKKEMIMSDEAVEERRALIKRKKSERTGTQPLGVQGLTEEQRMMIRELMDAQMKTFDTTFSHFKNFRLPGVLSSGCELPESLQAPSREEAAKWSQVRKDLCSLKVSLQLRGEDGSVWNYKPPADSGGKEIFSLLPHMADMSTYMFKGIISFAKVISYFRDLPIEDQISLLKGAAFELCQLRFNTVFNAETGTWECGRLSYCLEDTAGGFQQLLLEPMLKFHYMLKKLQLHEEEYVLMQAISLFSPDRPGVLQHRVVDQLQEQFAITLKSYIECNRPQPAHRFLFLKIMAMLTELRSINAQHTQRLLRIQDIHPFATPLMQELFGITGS

[2] = system: LS180 cells (parental); test: CellTiter-Glo cytotoxicity assay; conditions: 10 µM SPA70
[3] = molecular target: T2, mPXR (Mus musculus, UniProt O54915); test: mPXR transactivation assay; type: cell-based; conditions: only at concentrations higher than 5 µM
T2 construct: host or cells: Hepa 1-6
Experimental: For the mPXR transactivation assay, Hepa 1-6 cells were co-transfected with pCMV6-mPXR (Cat. No. MR226044, OriGene Technologies, Rockville, MD), pGL3-CYP3A4-luc and pRL-TK by using Lipofectamine 3000. […] The relative luciferase activity was determined by normalizing the firefly luciferase signal to the Renilla luciferase signal. The final DMSO concentration was 0.3% in all assay wells. In the agonistic assays, 10 μM PCN and DMSO were used as the positive (100% activation) and negative control (0% activation), respectively. […] Compound activity was normalized to the controls.

[4] = system: panel of seven other human nuclear receptors; test: GeneBLAzer nuclear receptor panel, agonistic and antagonistic modes; type: cell-based
Experimental: For the GeneBLAzer NR-UAS-bla HEK 293 T assays for VDR, RXRα, RXRβ, FXR, GR, LXRα, LXRβ and PPARγ, GeneBLAzer panel nuclear receptor cells, the LiveBLAzer FRET-B/G Loading Kit with CCF4-AM, and all tissue culture reagents were purchased from Thermo Fisher Scientific. The assays were performed in accordance with the manufacturer’s instructions, with minor modifications as reported previously[48]–[50]. Briefly, positive control (as described for each assay), DMSO, and dilutions of test chemicals either alone (for agonistic assays) or in combination with an approximately EC80 concentration of a specific agonist (for antagonistic assays) were incubated with an optimized number of cells for each assay in wells of black 384-well tissue culture-treated clear-bottom plates with 30 µl of the respective assay medium in a 37 °C cell-culture incubator. A group of wells containing assay medium and DMSO, but no cells, served as a background control. The final DMSO concentration was 0.5% for all wells. After 24 h, 6 µl per well of loading solution was added, and this step was followed by an optimal period of incubation at room temperature in the dark before the fluorescent emission at 460 and 535 nm (using excitation at 400 nm) was measured with an EnVision plate reader. […]

[5] = system: hPXR; test: Liver Cyp3a11 mRNA and protein in hPXR transgenic mice; type: in vivo, mouse; conditions: hPXR humanized transgenic mice, SPA70 200 mg kg−1, RIF 10 mg kg−1, 72 h
Experimental: Cells were rinsed once with cold PBS then lysed in RIPA lysis buffer (Thermo Fisher Scientific) containing protease inhibitor (Roche). Mouse liver samples were homogenized in 500 μl of cold RIPA lysis buffer in a Bullet Blender Blue homogenizer (Next Advance, Averill Park, NY). Then, 25 μg of total protein lysates were loaded onto NuPAGE 4%–12% Bis-Tris gels (Invitrogen) with NuPAGE MES SDS running buffer (Invitrogen). The proteins were transferred from the gel to a nitrocellulose membrane by using the iBlot gel-transfer system (Invitrogen). […] The relative intensity of each protein band was then determined by normalizing the intensity of each protein band to that of actin. […]
The method used for RNA extraction and polymerase chain reaction with reverse transcription (RT-PCR) has been described previously. […] Quantitative RT-PCR was performed in accordance with the manufacturer’s protocol by using TaqMan gene expression assays (Thermo Fisher Scientific) specific for the hPXR and Cyp3a11 genes, with GAPDH or 18s rRNA as the reference gene, in an ABI 7900HT Fast Real-Time PCR System (Thermo Fisher Scientific). […] The comparative threshold (Ct) method was used for the relative quantification of gene expression by the following formulae: ΔCt = Ct (test gene) − Ct (GAPDH); ΔΔCt (test gene) = ΔCt (test gene in treatment group) − ΔCt (test gene in vehicle control group). […]

T2 sequence (O54915 whole entry): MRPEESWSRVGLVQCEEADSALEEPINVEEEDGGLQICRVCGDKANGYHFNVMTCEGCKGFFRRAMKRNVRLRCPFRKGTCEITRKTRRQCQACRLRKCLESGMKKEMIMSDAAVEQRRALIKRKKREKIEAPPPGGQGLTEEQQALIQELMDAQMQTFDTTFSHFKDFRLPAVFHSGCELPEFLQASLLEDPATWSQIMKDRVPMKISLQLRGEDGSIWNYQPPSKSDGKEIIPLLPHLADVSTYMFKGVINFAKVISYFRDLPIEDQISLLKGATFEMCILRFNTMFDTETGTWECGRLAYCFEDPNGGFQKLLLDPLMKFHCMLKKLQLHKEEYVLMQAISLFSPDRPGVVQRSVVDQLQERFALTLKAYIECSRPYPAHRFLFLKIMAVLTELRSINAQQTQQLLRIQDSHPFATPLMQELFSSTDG

COc1ccc(OC)c(-n2nnc(S(=O)(=O)c3ccc(C(C)(C)C)cc3)c2C)c1 [SPA70]
Effect on basal activity of hPXR [1]: very weakly inhibited the basal activity
Toxicity of SPA70 alone in LS180 cells [2]: marginally toxic
mPXR agonism [3]: very weak mPXR agonist; also recorded: weak agonist of mPXR
Agonistic or antagonistic activity against other human nuclear receptors [4]: no detectable agonistic or antagonistic activity
Effect on rifampicin-induced expression of Cyp3a11 (mRNA and protein) [5]: effectively blocked the rifampicin-induced expression of Cyp3a11
